Test results: patent US10344019B2 (priority 2010, dated 2019)
pEC50: −log10 of the molar value. Like-named read-outs stand apart in the source and are kept apart here.

How the values were obtained:
Type in all cases: cell-based
[1] = test system: HCV 2a Rluc cells (NS5A chimeric genotype 2a JFH-1 replicon with genotype 2a J6 strain NS5A gene, M31 present); test: HCV replicon reporter assay, genotype 2a J6 (M31 present); conditions: read-out: 2a J6
Outline: (§1)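 Renilla luciferase HCV replicon cells: dicistronic 1b Con1, 1a H77 or 2a JFH-1 replicons, or a JFH-1 chimera carrying J6 NS5A (M31 present). Compound in DMSO serial dilutions, 72 h incubation, then lysis and luciferase read. EC50 by non-linear regression.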

[2] = test system: HCV 2a JFH-1 Rluc cells (dicistronic genotype 2a JFH-1 replicon, RLuc reporter); test: microbe, parasite or virus in culture; conditions: Hepatitis C virus, read-out: 2a JFH
Outline: as §1

[3] = test system: HCV 4a Rluc cells (NS5A chimeric genotype 1b Con1 replicon with genotype 4a NS5A gene); test: microbe, parasite or virus in culture; conditions: read-out: 4a
Outline: (§2)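 Replicon cells stably carrying the listed RLuc-encoding dicistronic replicons were seeded and treated with DMSO serial dilutions of compound (10 mM stocks) diluted into culture medium. After 72 h, cells were lysed and Renilla luciferase activity measured. EC50 was derived by non-linear regression.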

[4] = test system: HCV 2b Rluc cells (NS5A chimeric genotype 2a JFH-1 replicon with genotype 2b MD2b-1 NS5A gene, M31 present); test: microbe, parasite or virus in culture; conditions: read-out: 2b
Outline: as §2

[5] = test system: HCV 1a RLuc cells (dicistronic genotype 1a H77 replicon, RLuc reporter); test: microbe, parasite or virus in culture; conditions: Hepatitis C virus, read-out: 1a
Outline: as §1

[6] = test system: HCV 3a RLuc cells (NS5A chimeric genotype 1b Con1 replicon with consensus genotype 3a NS5A gene); test: microbe, parasite or virus in culture; conditions: Hepatitis C virus
Outline: as §2

[7] = test system: Q30R in genotype 1a NS5A, 1a Rluc replicon transfected into Huh-7 cured-51 cells; test: HCV replicon assay, resistance mutant 1a Q30R
Experimental: Evaluation of cell-based anti-HCV activity: Antiviral potency (EC50) was determined using a Renilla luciferase (RLuc)-based HCV replicon reporter assay. To perform the assay for genotype 1 and 2a JFH-1, HCV 1b RLuc cells (harboring a dicistronic genotype 1b Con1 replicon that encodes a RLuc reporter), or HCV 1a RLuc cells (harboring a dicistronic genotype 1a H77 replicon that encodes a RLuc reporter), or HCV 2a JFH-1 Rluc cells (harboring a dicistronic genotype 2a JFH-1 replicon that encodes a RLuc reporter) were dispensed into 384-well plates. To perform the assay for genotype 2a (with M31 present) or 2b, HCV 2a Rluc or 2b Rluc cells (both with M31 present) harboring a dicistronic NS5A chimeric genotype 2a JFH-1 replicon that encodes a RLuc reporter and either genotype 2a J6 strain NS5A gene or genotype 2b MD2b-1 NS5A gene (based on Los Alamos HCV database isolates, both with M31 present) respectively, were dispensed into 384-well plates. To perform the assay for genotype 3 and 4, HCV 3a RLuc or 4a Rluc cells harboring a dicistronic NS5A chimeric genotype 1b Con1 replicon that encodes a RLuc reporter and either a consensus genotype 3a NS5A gene or genotype 4a NS5A gene (based on Los Alamos HCV database isolates) respectively, were dispensed into 384-well plates. Compounds were re-suspended in DMSO at a concentration of 10 mM and serially diluted in DMSO either manually or using an automated pipeting instrument. Serially diluted compounds were mixed with cell culture media and added to the seeded cells. […] 72 hours later, cells were lysed and Renilla luciferase activity quantified as recommended by the manufacturer (Promega-Madison, Wis.). Non-linear regression was performed to calculate EC50 values.
To determine the antiviral potency (EC50) against resistance mutants, resistance mutations, including M28T, Q30R, Q30H, L31M, and Y93C in genotype 1a NS5A and Y93H in genotype 1b NS5A, were introduced individually into either 1a Rluc or 1b Rluc replicons described above by site directed mutagenesis. Replicon RNA of each resistant mutant was transfected into Huh-7 cured-51 cells and antiviral potency was determined on these transfected cells as described above.

[8] = test system: HCV 1b RLuc cells (dicistronic genotype 1b Con1 replicon, RLuc reporter); test: microbe, parasite or virus in culture; conditions: Hepatitis C virus, read-out: 1b (nM)
Outline: as §1

[9] = Hepatitis C virus, Huh-7, read-out: 1a Q30R
[10] = genotype 2a JFH-1 RLuc replicon
[11] = read-out: 3a, genotype 3a NS5A chimeric replicon

Structure (SMILES)	pEC50 ([1]; Hepatitis C virus)	pEC50 ([2]; genotype 2a JFH-1 replicon)	pEC50 ([3]; Hepatitis C virus)	pEC50 ([4]; Hepatitis C virus)	pEC50 ([5]; genotype 1a replicon)	pEC50 ([6]; read-out: 3a, genotype 3a replicon)	pEC50 [7, 9]	pEC50 [2, 10]	pEC50 ([5]; genotype 1a H77 RLuc replicon)	pEC50 [6, 11]	pEC50 ([1]; genotype 2a J6 NS5A chimeric replicon, M31 present)	pEC50 ([3]; genotype 4a NS5A chimeric replicon)	pEC50 ([4]; genotype 2b NS5A chimeric replicon, M31 present)	pEC50 ([7]; read-out: 1a Q30R, genotype 1a NS5A Q30R resistance mutant)	EC50 [8]
COC(=O)N[C@H](C(=O)N1CCC[C@H]1c1ncc(-c2ccc3c(c2)COc2cc4c(cc2-3)CCc2nc([C@@H]3CCCN3C(=O)[C@H](NC(=O)OC)c3ccccc3)[nH]c2-4)[nH]1)C(C)C [Example 434]	9.00 to 12.00	9.00 to 12.00	9.00 to 12.00	9.00 to 12.00	9.00 to 12.00	9.00 to 12.00	9.00 to 12.00								
COC[C@@H]1C[C@@H](c2nc3ccc4cc5c(cc4c3[nH]2)OCc2cc(-c3cnc([C@@H]4CCCN4C(=O)[C@@H](NC(=O)OC)C(C)C)[nH]3)ccc2-5)N(C(=O)[C@H](NC(=O)OC)c2ccccc2)C1 [Example 589]	9.00 to 12.00		9.00 to 12.00	9.00 to 12.00			9.00 to 12.00	9.00 to 12.00	9.00 to 12.00	9.00 to 12.00					
COC[C@H]1C[C@@H](c2nc3ccc4cc5c(cc4c3[nH]2)OCc2cc(-c3cnc([C@@H]4CCCN4C(=O)[C@@H](NC(=O)OC)C(C)C)[nH]3)ccc2-5)N(C(=O)[C@H](NC(=O)OC)c2ccccc2)C1 [Example 538]	9.00 to 12.00		9.00 to 12.00	9.00 to 12.00			9.00 to 12.00	9.00 to 12.00	9.00 to 12.00	9.00 to 12.00					
COC[C@H]1C[C@@H](c2nc3ccc4cc(-c5ccc6c(ccc7nc([C@@H]8CCCN8C(=O)[C@@H](NC(=O)OC)C(C)C)[nH]c76)c5)ccc4c3[nH]2)N(C(=O)[C@H](NC(=O)OC)c2ccccc2)C1 [Example 540]								9.00 to 12.00	9.00 to 12.00	9.00 to 12.00	9.00 to 12.00	9.00 to 12.00	9.00 to 12.00	9.00 to 12.00	
COC(=O)N[C@H](C(=O)N1CCC[C@H]1c1ncc(-c2ccc3c(c2)COc2cc4c(ccc5nc([C@@H]6C[C@H](C)CN6C(=O)[C@@H](NC(=O)OC)C(C)C)[nH]c54)cc2-3)[nH]1)C(C)C [Example 526]	9.00 to 12.00		9.00 to 12.00	9.00 to 12.00			9.00 to 12.00	9.00 to 12.00	9.00 to 12.00	9.00 to 12.00					
COC[C@H]1C[C@@H](c2nc3c([nH]2)-c2cc4c(cc2CC3)-c2ccc(-c3cnc([C@@H]5CCCN5C(=O)[C@@H](NC(=O)OC)C(C)C)[nH]3)cc2CO4)N(C(=O)[C@H](NC(=O)OC)c2ccccc2)C1 [Example 587]	9.00 to 12.00		9.00 to 12.00	9.00 to 12.00			9.00 to 12.00	9.00 to 12.00	9.00 to 12.00	9.00 to 12.00					
COC[C@H]1C[C@@H](c2ncc(-c3ccc4c(c3)COc3cc5c(ccc6nc([C@@H]7C[C@H](C)CN7C(=O)[C@@H](NC(=O)OC)C(C)C)[nH]c65)cc3-4)[nH]2)N(C(=O)[C@H](NC(=O)OC)c2ccccc2)C1 [Example 622]	9.00 to 12.00			9.00 to 12.00			9.00 to 12.00	9.00 to 12.00	9.00 to 12.00	9.00 to 12.00					0.016 nM
COC[C@H]1C[C@@H](c2ncc(-c3ccc4c(c3)COc3cc5c(ccc6nc([C@@H]7C[C@H]8CC8N7C(=O)[C@H](NC(=O)OC)c7ccccc7)[nH]c65)cc3-4)[nH]2)N(C(=O)[C@@H](NC(=O)OC)C(C)C)C1 (some centres unmarked) [Example 601]	9.00 to 12.00			9.00 to 12.00			9.00 to 12.00	9.00 to 12.00	9.00 to 12.00	9.00 to 12.00					0.014 nM
